Measured values published in US20230203485A1, “METHODS FOR MODULATING MHC-I EXPRESSION AND IMMUNOTHERAPY USES THEREOF” (Dana-Farber Cancer Institute, Inc., priority 2020, published 2023).

Columns and labels:
class I gene transcripts = experiment: RNA-seq of MCC lines before and after IFN-γ stimulation; format: cell-based, human
Description: For samples from the MCC tumors and newly generated cell lines, RNA was first assessed for quality using the Agilent Bioanalyzer (DV200 metric). 100 ng of RNA were used as the input for first strand cDNA synthesis using Superscript III reverse transcriptase and Illumina's TruSeq RNA Access Sample Prep Kit. Synthesis of the second strand of cDNA was followed by indexed adapter ligation with UMI (unique molecular index) adaptors. Subsequent PCR amplification enriched for adapted fragments. Amplified libraries were quantified, normalized, pooled, and hybridized with exome targeting oligos. Following hybridization, bead clean-up, elution, and PCR was performed to prepare library pools for sequencing on Illumina flowcell lanes. Transcriptomes were sequenced to a coverage of at least 50 million reads in pairs.
Gene counts were obtained from BAM files using featureCounts version 2.0.0. Very lowly expressed genes with average count across samples less than 1 were excluded from analysis. […]
Differential expression analysis was carried out between IFN-γ plus and minus samples (adjusting for viral status as a covariate) using the negative binomial GLM Wald test of DESeq2, where significance was assessed using the p-values adjusted for multiple comparisons under default settings. […]

[1] = test system: HLA-I and IFN pathway proteins; experiment: Whole proteome analysis of MCC cell lines with and without IFN-γ; format: cell-based, human
Description: Protein expression of MCC cell lines was assessed. Briefly, cell pellets of MCC cell lines with and without IFN-γ treatment were lysed in 8M Urea and digested to peptides using LysC and Trypsin (Promega). 400 μg peptides were labeled with TMT10 reagents (Thermo Fisher, 126-MCC-290, 127N-MCC-350_IFN, 127C MCC-275_IFN, 128N MCC-275, 128C MCC-350, 129N_MCC-301_IFN, 129C-MCC-277_IFN, 130N-MCC-290_IFNy, 130C MCC-277, 131 MCC-301) and then pooled for subsequent fractionation and analysis. Pooled peptides were separated into 24 fractions using offline high pH reversed phase fractionation. 1 μg per fraction was loaded onto an analytical column (20-30 cm with 1.9 μm C18 Reprosil beads [Dr. Maisch HPLC GmbH], packed in-house, PicoFrit 75 μM inner diameter, 10 μM emitter [New Objective]). Peptides were eluted with a linear gradient (EasyNanoLC 1000 or 1200, Thermo Scientific) ranging from 6-30% Buffer B (either 0.1% formic acid or 0.5% AcOH and 80% or 90% acetonitrile) over 84 min 30-90% Buffer B over 9 min, and held at 90% Buffer B for 5 min at 200 nl/min. During data dependent acquisition, peptides were analyzed on a Fusion Lumos (Thermo Scientific). Full scan MS was acquired at a 60,000 from 300-1,800 m/z. AGC target was set to 4e5 and 50 ms. […]

IFN-γ: interferon gamma used to stimulate MCC cell lines
class I gene transcripts (class I gene transcripts; MCC lines, IFN-γ treatment): markedly upregulated | HLA-A, -B, and -C mRNA upregulation (class I gene transcripts; MCC-336 (non-IFN-γ-responsive)): lack of IFN-induced HLA-A, -B, and -C mRNA upregulation | class I upregulation in matched proteomes ([1]; 4 MCC lines): confirmed | HLA-I and IFN pathway upregulation at the protein level ([1]; MCC-350 (non-IFN-γ-responsive), including STAT1 phosphorylation): global lack of IFN-induced HLA-I and IFN pathway upregulation
